Among the data in US10870647B2, “Imidazopyridine derivative, method for preparing same, and pharmaceutical composition containing same as active ingredient for preventing or treating cancer” (DAEGU-GYEONGBUK MEDICAL INNOVATION FOUNDATION, priority 2016, dated 2020) are remaining binding values, retold here.

SMILES strings stand for the structures.

What all share (test): Kinase selectivity, scanMAX Kinase assay panel (DiscoverX), % control at 1 uM
What all share (format): binding

For test [1], the target named is T1, scanMAX Kinase assay panel (Homo sapiens, UniProt Q7L7X3).
T1 construct: purchased DiscoverX
T1 sequence (Q7L7X3 1-1001): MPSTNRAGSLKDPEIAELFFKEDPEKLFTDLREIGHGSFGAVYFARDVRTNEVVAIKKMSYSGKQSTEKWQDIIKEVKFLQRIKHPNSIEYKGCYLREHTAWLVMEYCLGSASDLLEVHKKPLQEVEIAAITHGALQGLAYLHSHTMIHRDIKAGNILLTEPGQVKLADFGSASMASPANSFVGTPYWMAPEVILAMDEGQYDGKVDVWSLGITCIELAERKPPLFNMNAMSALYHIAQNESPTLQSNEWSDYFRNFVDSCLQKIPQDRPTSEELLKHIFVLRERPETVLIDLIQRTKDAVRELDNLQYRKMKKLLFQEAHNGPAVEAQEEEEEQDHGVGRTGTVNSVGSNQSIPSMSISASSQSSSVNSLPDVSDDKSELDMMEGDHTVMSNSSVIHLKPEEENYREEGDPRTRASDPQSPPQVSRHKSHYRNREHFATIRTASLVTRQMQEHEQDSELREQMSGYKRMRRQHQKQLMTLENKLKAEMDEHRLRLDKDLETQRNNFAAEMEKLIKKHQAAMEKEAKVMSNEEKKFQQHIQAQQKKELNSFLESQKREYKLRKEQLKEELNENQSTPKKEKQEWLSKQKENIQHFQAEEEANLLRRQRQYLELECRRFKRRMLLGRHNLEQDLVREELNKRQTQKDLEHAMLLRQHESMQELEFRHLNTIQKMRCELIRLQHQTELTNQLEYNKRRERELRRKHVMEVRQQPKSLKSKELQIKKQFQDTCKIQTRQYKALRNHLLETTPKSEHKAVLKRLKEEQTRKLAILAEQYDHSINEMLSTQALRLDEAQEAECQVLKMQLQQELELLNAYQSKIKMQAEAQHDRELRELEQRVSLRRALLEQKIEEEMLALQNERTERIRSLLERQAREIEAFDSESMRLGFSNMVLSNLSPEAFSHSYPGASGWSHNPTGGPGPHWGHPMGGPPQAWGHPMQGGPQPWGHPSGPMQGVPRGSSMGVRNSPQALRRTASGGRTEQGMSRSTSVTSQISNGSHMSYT
The note with it: TAOK1; 1 uM; read-out: Percent Control (%). Put shortly: (§1)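 Read-out is percent of control, derived from the signal with compound relative to positive and negative controls: (compound − positive)/(negative − positive) × 100. Each enzyme received test drug at 1 uM in DMSO, and values under 35% count as active.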

Test [2] has as its target T2, scanMAX Kinase assay panel (Homo sapiens, UniProt Q09013).
T2 construct: purchased DiscoverX
T2 sequence (Q09013 1-629): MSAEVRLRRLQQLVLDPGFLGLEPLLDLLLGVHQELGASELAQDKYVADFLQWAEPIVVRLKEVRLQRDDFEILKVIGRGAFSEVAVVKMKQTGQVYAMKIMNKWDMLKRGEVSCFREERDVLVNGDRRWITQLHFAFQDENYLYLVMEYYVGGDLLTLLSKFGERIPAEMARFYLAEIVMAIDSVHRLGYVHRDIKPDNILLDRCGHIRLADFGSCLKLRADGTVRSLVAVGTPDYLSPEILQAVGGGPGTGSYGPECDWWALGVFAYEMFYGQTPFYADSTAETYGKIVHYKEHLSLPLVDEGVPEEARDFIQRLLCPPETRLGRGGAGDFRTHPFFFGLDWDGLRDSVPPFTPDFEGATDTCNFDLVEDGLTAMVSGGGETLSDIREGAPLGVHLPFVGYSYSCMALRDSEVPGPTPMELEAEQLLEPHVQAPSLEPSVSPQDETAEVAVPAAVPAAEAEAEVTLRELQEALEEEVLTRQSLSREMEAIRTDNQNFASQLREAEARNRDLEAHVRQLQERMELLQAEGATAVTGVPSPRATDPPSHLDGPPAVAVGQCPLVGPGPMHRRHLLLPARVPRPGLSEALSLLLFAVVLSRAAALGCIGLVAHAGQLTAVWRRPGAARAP
The note with it: DMPK; 1 uM; read-out: Percent Control (%). Put shortly: as §1

Test [3] concerns the target T3, scanMAX Kinase assay panel (Homo sapiens, UniProt P15056).
T3 construct: purchased DiscoverX
Particulars: BRAF; 1 uM; read-out: Percent Control (%). The procedure, abridged: as §1

Test [4] addresses T4, scanMAX Kinase assay panel (Homo sapiens, UniProt Q9Y3S1).
T4 construct: purchased DiscoverX
Particulars: WNK2; 1 uM; read-out: Percent Control (%). The procedure, abridged: as §1

For test [5], the target named is T5, scanMAX Kinase assay panel (Homo sapiens, UniProt P32298).
T5 construct: purchased DiscoverX
Particulars: GRK4; 1 uM; read-out: Percent Control (%). Put shortly: as §1

Test [6] addresses T6, scanMAX Kinase assay panel (Homo sapiens, UniProt Q5S007, G2019S).
T6 construct: purchased DiscoverX
Particulars: LRRK2 (G2019S); 1 uM; read-out: Percent Control (%). Put shortly: as §1

Test [7] addresses T7, scanMAX Kinase assay panel (Homo sapiens, UniProt Q04912).
T7 construct: purchased DiscoverX
Particulars: MST1R; 1 uM; read-out: Percent Control (%). The procedure, abridged: as §1

In test [8] the target is T8, scanMAX Kinase assay panel (Homo sapiens, UniProt O14965).
T8 construct: purchased DiscoverX
T8 sequence (O14965 1-403): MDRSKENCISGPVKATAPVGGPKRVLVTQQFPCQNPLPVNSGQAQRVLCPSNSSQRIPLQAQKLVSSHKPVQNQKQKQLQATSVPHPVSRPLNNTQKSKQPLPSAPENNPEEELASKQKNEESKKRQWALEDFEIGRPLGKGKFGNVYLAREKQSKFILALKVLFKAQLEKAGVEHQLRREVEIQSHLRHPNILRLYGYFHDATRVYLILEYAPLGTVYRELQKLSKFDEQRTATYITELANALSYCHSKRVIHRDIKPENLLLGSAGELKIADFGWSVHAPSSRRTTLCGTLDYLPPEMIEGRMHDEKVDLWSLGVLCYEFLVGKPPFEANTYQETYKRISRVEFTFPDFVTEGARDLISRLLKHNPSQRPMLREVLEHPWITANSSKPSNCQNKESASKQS
Particulars: AURKA; 1 uM; read-out: Percent Control (%). The procedure, abridged:
as §1

T5 sequence (P32298 whole entry): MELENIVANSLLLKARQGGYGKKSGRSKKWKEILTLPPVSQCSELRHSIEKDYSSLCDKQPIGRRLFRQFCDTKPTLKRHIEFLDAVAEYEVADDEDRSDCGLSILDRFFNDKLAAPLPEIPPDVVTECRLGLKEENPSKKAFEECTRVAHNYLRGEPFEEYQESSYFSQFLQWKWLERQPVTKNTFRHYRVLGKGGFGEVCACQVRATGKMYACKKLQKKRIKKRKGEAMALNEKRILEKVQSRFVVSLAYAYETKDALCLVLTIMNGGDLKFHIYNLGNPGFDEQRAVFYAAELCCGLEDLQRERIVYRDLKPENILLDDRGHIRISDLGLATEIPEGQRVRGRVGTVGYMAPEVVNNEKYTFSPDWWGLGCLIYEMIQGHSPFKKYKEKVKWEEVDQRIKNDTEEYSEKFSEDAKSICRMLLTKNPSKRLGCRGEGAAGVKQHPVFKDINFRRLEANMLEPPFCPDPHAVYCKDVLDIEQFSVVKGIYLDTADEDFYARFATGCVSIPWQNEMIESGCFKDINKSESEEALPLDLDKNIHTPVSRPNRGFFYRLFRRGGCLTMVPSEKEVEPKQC
T7 sequence (Q04912 25-1400): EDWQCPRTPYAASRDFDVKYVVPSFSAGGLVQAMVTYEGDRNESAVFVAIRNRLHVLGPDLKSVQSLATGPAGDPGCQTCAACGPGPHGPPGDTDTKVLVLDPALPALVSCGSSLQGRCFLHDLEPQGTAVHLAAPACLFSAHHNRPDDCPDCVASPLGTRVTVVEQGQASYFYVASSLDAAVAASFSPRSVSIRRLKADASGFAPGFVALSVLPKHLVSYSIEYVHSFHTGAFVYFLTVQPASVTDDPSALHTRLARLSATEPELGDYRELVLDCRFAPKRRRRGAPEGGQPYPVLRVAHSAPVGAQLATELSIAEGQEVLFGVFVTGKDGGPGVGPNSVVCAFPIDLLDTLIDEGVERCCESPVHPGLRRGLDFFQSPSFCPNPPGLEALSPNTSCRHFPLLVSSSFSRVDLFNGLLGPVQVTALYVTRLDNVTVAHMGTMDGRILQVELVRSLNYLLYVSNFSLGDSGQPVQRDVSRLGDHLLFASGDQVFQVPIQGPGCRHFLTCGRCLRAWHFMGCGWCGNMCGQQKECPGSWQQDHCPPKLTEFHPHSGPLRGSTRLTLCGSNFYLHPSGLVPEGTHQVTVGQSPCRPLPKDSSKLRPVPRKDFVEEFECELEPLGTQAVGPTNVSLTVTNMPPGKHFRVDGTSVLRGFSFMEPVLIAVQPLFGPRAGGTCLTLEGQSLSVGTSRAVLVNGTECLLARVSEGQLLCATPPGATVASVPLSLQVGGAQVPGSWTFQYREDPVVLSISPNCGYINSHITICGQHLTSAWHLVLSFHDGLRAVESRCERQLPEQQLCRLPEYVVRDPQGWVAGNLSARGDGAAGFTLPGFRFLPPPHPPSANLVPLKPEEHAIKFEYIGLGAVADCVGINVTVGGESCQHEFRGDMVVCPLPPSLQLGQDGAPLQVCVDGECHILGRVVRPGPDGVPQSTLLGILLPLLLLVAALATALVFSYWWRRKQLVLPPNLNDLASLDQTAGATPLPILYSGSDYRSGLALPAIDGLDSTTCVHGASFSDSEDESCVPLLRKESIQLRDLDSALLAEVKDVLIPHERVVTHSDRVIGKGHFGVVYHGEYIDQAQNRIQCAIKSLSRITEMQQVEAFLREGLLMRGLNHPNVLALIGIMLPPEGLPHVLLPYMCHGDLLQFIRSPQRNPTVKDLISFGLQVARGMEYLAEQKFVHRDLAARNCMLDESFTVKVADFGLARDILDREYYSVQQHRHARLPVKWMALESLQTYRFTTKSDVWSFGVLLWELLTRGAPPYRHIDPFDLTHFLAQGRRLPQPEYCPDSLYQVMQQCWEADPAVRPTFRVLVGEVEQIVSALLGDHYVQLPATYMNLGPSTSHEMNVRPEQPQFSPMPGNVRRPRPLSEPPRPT
T6 sequence (Q5S007 whole entry G2019S): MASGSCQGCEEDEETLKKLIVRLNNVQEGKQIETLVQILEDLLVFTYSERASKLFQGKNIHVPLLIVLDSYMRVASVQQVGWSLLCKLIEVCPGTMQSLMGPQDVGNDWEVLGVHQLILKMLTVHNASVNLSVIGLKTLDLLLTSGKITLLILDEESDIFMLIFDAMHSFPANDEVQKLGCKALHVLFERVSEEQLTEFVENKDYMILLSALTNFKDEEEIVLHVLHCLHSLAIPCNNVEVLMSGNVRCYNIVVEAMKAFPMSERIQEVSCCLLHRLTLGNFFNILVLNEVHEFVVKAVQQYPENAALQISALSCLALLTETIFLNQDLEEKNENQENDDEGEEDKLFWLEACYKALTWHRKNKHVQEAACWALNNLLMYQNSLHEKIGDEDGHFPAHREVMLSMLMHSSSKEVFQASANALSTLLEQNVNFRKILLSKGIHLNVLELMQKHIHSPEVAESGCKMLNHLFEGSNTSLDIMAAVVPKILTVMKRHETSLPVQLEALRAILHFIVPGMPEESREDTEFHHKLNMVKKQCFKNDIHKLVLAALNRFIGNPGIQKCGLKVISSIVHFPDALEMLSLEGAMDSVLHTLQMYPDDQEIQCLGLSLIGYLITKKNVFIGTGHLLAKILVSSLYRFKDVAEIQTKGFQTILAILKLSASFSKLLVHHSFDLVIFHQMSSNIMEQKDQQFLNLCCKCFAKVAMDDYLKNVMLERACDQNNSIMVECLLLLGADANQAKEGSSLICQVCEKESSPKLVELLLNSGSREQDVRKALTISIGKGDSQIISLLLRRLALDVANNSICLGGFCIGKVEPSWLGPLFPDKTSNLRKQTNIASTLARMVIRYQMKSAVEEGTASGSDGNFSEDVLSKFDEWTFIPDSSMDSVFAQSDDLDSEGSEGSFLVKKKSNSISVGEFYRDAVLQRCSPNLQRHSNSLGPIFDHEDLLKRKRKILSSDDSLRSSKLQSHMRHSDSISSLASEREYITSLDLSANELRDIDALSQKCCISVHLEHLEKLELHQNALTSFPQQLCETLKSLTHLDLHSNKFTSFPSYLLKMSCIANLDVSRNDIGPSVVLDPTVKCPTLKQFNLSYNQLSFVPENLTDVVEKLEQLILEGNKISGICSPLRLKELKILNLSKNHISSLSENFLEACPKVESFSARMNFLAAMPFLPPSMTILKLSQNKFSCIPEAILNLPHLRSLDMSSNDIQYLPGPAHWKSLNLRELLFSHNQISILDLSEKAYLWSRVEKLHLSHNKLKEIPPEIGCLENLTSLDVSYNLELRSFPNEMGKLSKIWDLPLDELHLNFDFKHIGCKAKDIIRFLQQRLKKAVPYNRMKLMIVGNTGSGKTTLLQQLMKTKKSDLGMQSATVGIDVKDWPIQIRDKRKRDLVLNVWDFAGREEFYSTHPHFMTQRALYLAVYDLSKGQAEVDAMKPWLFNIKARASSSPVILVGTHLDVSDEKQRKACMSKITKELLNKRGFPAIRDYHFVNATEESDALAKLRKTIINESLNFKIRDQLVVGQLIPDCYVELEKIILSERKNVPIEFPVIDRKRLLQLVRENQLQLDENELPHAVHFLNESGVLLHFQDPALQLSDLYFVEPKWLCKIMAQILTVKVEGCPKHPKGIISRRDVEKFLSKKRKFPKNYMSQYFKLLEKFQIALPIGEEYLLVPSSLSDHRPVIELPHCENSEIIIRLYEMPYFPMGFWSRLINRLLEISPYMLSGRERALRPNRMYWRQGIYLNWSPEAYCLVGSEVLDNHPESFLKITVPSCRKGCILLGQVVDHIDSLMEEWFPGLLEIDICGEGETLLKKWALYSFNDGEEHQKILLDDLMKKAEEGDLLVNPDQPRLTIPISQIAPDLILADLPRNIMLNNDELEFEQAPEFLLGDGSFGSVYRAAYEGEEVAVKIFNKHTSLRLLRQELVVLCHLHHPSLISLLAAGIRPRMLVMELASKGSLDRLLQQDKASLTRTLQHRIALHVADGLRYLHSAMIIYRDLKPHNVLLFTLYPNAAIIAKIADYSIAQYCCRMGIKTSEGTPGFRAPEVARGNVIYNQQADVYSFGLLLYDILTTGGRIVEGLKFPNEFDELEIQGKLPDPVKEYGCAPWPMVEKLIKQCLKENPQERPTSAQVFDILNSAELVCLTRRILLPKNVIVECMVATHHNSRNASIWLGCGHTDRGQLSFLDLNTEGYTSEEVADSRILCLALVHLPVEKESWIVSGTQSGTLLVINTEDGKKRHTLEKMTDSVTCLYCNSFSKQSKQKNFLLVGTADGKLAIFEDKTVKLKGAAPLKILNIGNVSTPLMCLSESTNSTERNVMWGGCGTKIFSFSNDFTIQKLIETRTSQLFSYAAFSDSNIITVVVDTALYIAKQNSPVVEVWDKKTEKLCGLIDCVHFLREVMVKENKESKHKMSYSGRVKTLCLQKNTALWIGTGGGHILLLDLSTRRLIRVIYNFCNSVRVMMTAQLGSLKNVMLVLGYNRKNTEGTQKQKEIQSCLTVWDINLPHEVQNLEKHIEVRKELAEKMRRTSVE

Regarding `Cc1ccc(C(=O)Nc2ccc(CN3CCN(C)CC3)c(C(F)(F)F)c2)cc1C#Cc1cnc2c(Nc3cnn(C)c3)cccn12` [Example 1, 4-methyl-3-((8-((1-methyl-1H-pyrazol-4-yl)amino)imidazo[1,2-a]pyridin-3-yl)ethynyl)-N-(4-((4-methylpiperazin-1-yl)methyl)-3-(trifluoromethyl)phenyl)benzamide], the remaining binding at 1 µM is 51% in test [1]; 100% in test [2]; 18% in test [3]; 82% in test [4]; 100% in test [5]; 27% in test [6]. For the same compound, the figures for the remaining binding at 1 µM in test [7] and in test [8] were 32% and 72%, respectively.

Turning to `Cc1ccc(NC(=O)C2(C(=O)Nc3ccc(F)cc3)CC2)cc1C#Cc1cnc2c(Nc3cnn(C(C)C)c3)cccn12` [Example 78], the remaining binding at 1 µM in test [1] turned out to be 89%; in test [2], 92%; in test [3], 100%; in test [4], 100%; in test [5], 100%; in test [6], 100%. In addition, the remaining binding at 1 µM was found to be 97% in test [7] and 100% in test [8].

Turning to `Cc1cn(-c2cc(NC(=O)c3ccc(C)c(C#Cc4cnc5c(Nc6cnn(C)c6)cccn45)c3)cc(C(F)(F)F)c2)cn1` [Example 12, 4-methyl-N-(3-(4-methyl-1H-imidazol-1-yl)-5-(trifluoromethyl)phenyl)-3-((8-((1-methyl-1H-pyrazol-4-yl)amino)imidazo[1,2-a]pyridin-3-yl)ethynyl)benzamide], the remaining binding at 1 µM in test [1] is 100%; in test [2], 96%; in test [3], 80%; in test [4], 100%; in test [5], 100%; in test [6], 100%. For the same compound, the remaining binding at 1 µM in test [7] is 87%; in test [8] it was 100%.
